Assay results: patent US9340580B2, “Peptide with multiple epitopes” (priority 2007, dated 2016)
Values joined by “and” are separate entries in the source; they are usually repeats but may differ in a detail not shown here. Equal values may be shown once. Read-outs that look alike come from different tables or passages of the source. Where a SMILES comes first, the peptide text is derived from it.

Key:
[1] = solubility pre-screen in an aqueous, acidic milieu; type: physicochemical
[2] = precipitation in the aqueous solution of the binding assay; type: physicochemical; conditions: read-out: Precipitation in assay: lowest concentration at which an insoluble white precipitate is seen
Text: (§1) This is a characteristic of promiscuous HLA-DRB1* binders.

[3] = biological target: DRB1*0401 (Homo sapiens, UniProt P01903+P01911, A100K/A169T/F76Y/I96L/K127E/L162R/M171V/N62H/P40V/Q125Y/R42H/S133A/S149N/S66Y/V115G/V209L/W38E); experiment: competitive MHC class II binding assay; conditions: control peptide Influenza haemagglutinin 307-319
Text: as §1

[4] = biological target: DRB1*0701 (Homo sapiens, UniProt P01903+P01911, A100R/A102G/A103Q/D57E/D86V/E43K/F76Y/K127E/L162R/M171V/P40G/Q125H/Q99D/R33Q/R42Y/R54Q/S133A/S66F/T210M/V115G/Y107V/Y59L/Y89S); experiment: competitive MHC class II binding assay; conditions: control peptide Influenza haemagglutinin 307-319
Text: as §1

[5] = biological target: DQA1*0102/DQB1*0602 (Homo sapiens, UniProt P01909+P01920, A157G/A45G/C70R/E118A/E183D/E77G/F83G/G63E/H151Q/H199R/H252R/H253Q/I129T/I235V/I88M/INS77G/K197Q/L117V/L119F/L178F/L71W/L74F/L85Q/L91A/L98M/N214S/P87R/Q116E/Q76K/R102G/R240Q/R75S/R78G/S102Y/S185I/S41F/S97I/T121G/T122I/T172A/T86R/V229M/V68A/V73E/Y34C/Y41F/Y58L); experiment: competitive MHC class II binding assay; conditions: control peptide Human Insulin B 1-15
Method: as §1
In addition, to identify lower affinity binders, the assay was also carried out under less stringent conditions. All the Der p binding peptides were seen to have a high ratio when tested against this allotype, showing they were low affinity binders compared to the control peptide. The DQA1*0102/DQB1*0602 binding assay uses a peptide from the B-chain of human insulin which is of lower affinity compared to those used in the DR assays. This dictates that the DQ assay is very sensitive and tends to produce very low ratio values for the strongest binders to this MHC Class II allotype. This sensitivity also accounts for the relatively higher number of DQ binding peptides within the panel screened. Finally, on closer analysis, the peptides identified as ligands for the DRB1*0101,*0401, *0701 superfamily, are found to incorporate a motif that is characteristic of promiscuous binders to this family of allotypes where: P1=Y, F, W, L, I, V, or M (Large aromatic or hydrophobic residue), P6=S, T, C, A, P, V, I, M (small, non-charged residue)

[6] = biological target: DRB1*1101 (Homo sapiens, UniProt P01903+P01911, A100R/A169T/A87E/I96F/K41T/L162R/M171V/P40S/Q125H/Q178H/Q39Y/Q99D/R42S/S66Y/T262R/V115G/W38E); experiment: competitive MHC class II binding assay; conditions: control peptide Influenza haemagglutinin 307-319
Text: as §1

[7] = system: human MHC class II allotypes; experiment: competitive MHC class II binding assay, statements over the panel; conditions: peptides of reduced purity
Text: as §1
This is of significance as purities were seen to vary from 60-90%. This would have a considerable effect on the ability of a peptide to compete if it is relatively impure. […] Therefore, if purity is taken into consideration, they may in fact have an equivalent affinity to a peptide of a higher purity.

[8] = biological target: T1, human MHC class II allotype DQA1*0102/DQB1*0602 (human), P01920
T1 chain 1: not shown
T1 chain 2: not shown

[9] = biological target: T2, human MHC class II allotype HLA-DRB1*1101 (human)
T2 chain 1: not shown
T2 chain 2: not shown

[10] = biological target: T3, human MHC class II allotype HLA-DRB1*1501 (human)
T3 chain 1: not shown
T3 chain 2: not shown

[11] = biological target: T4, human MHC class II allotype HLA-DRB1*0701 (human)
T4 chain 1: not shown
T4 chain 2: not shown

[12] = biological target: T5, human MHC class II allotype HLA-DRB1*1501 (human); experiment: competitive MHC class II binding assay, high stringency screen; competitor control peptide myelin basic protein 85-99
T5 construct: Source and construct of the MHC protein in the assay are not described

CSCC[C@H](NC(=O)[C@H](CO)NC(=O)[C@@H](NC(=O)[C@@H](NC(=O)[C@H](CC(=O)O)NC(=O)[C@H](CC(=O)O)NC(=O)[C@@H](N)Cc1c[nH]cn1)C(C)C)C(C)C)C(=O)N[C@@H](CCC(=O)O)C(=O)N[C@@H](Cc1ccc(O)cc1)C(=O)N[C@@H](CC(=O)O)C(=O)N[C@@H](CC(C)C)C(=O)N[C@@H](C)C(=O)N[C@@H](Cc1ccc(O)cc1)C(=O)N[C@@H](CCCCN)C(=O)N[C@@H](CC(C)C)C(=O)O [HDM39A] (H-HDDVVSMEYDLAYKL-OH; N-terminus and C-terminus assumed)
Solubility test [1]: YES
solubility [2]: 1000 µM and 1800 µg/mL
relative binding: ratio of peptide IC50 to control peptide IC50, DRB1*0401 [3]: 76.19
relative binding: ratio of peptide IC50 to control peptide IC50, DRB1*0701 [4]: 0.71
relative binding: ratio of peptide IC50 to control peptide IC50, DQA1*0102 DQB1*0602 [5]: 0.1

CSCC[C@H](NC(=O)[C@H](CO)NC(=O)[C@@H](N)C(C)C)C(=O)N[C@@H](CCC(=O)O)C(=O)N[C@@H](Cc1ccc(O)cc1)C(=O)N[C@@H](CC(=O)O)C(=O)N[C@@H](CC(C)C)C(=O)N[C@@H](C)C(=O)N[C@@H](Cc1ccc(O)cc1)C(=O)N[C@@H](CCCCN)C(=O)N[C@@H](CC(C)C)C(=O)NCC(=O)N[C@@H](CC(=O)O)C(=O)N[C@@H](CC(C)C)C(=O)N[C@@H](Cc1c[nH]cn1)C(=O)O [HDM40A] (H-VSMEYDLAYKLGDLH-OH; N-terminus and C-terminus assumed)
Solubility test [1]: YES
solubility [2]: 1000 µM and 1800 µg/mL
relative binding: ratio of peptide IC50 to control peptide IC50, DRB1*1101 [6]: 6
relative binding: ratio of peptide IC50 to control peptide IC50, DRB1*0701 [4]: 2.29

DGLEVDVPGIDPNACH (listed as Dermatophagoides pteronyssinus) [HDM23A]
Solubility test [1]: YES
binding affinity in the competition assay (in words) [7]: low affinity binding

CIIHRGKPFQLEA (modifications not checked) [HDM20]
ratio of its own IC50 to that of the control peptide [8]: 2.37
ratio of its own IC50 to that of the control peptide [9]: 28
ratio of its own IC50 to that of the control peptide [10]: 242
ratio of its own IC50 to that of the control peptide [11]: 1.1

B1: Fel d 1 peptide EQVAQYKALPVVLENA (peptide)
peptide: EQVAQYKALPVVLENA
notes: Said to have been tested in an earlier study
ratio of its own IC50 to that of the control peptide [12]: 0.97
